Assay results: US20260007601A1, “IONIZABLE CATIONIC LIPID COMPOUND AND COMPOSITION FOR DELIVERING NUCLEIC ACID AND USE THEREOF” (BEIJING YOUCAREKECHUANG PHARMACEUTICAL TECHNOLOGY CO., LTD., priority 2023, published 2026)
Each block holds one compound with its values, some of them ahead of it.

How the values were obtained:
[1] = Encapsulation rate, drug loading concentration and total RNA concentration detection (RiboGreen); type: physicochemical; conditions: for Drug loading concentration / Encapsulation rate / Total RNA concentration: LNP formulation of the named lipid
female BALB/C mice = experiment: Mouse in vivo imaging of Fluc-mRNA LNP formulations; set-up: average radiation intensity (mRNA expression): unit not given here; conditions: for average radiation intensity (mRNA expression): 10 μg Fluc-mRNA LNP intramuscularly
Experimental: The LNP formulation containing 10 μg Fluc-mRNA (prepared according to Example 4) was injected intramuscularly into female BALB/C mice aged 4 to 6 weeks and weighing 17 to 19 g, and the mice were intraperitoneally injected with fluorescent imaging substrates at specific time points (6 h, 24 h, 48 h and 7 d) after administration. The mice moved freely for 5 minutes, and then the average radiation intensity (corresponding to the fluorescence expression intensity) of the protein expressed by the mRNA carried by the LNP in the mice was detected by IVIS Spectrum small animal in vivo imager. The test results are shown in Tables 14 to 17 and FIGS. 12 to 14.

[2] = Particle size and polydispersity index (PDI) of nanolipid particles, dynamic light scattering; type: physicochemical; conditions: LNP formulation prepared from the named cationic lipid, 25° C
Experimental: The particle size and polydispersity index (PDI) were determined by dynamic light scattering method using a Malvern laser particle size analyzer. 10 μL of liposome solution was diluted to 1 mL with RNase-free deionized water and added to a sample pool. Each sample was measured three times. The measurement conditions were: 90° scattering angle, 25° C.

293T cells [3] = experiment: Fluorescence detection of Fluc-mRNA (cell transfection efficiency of LNP formulations); type: cell-based; conditions: for Relative light unit (RLU): LNP containing 0.3 μg Fluc-mRNA, 24 hours; for Multiples of values that equivalent to YK-201: RLU of YK-201 / RLU of the named lipid; for Multiples of values that equivalent to YK-202: RLU of YK-202 / RLU of the named lipid; for Multiples of values that equivalent to YK-209: RLU of YK-209 / RLU of the named lipid; for Ratio relative to SM-102: RLU of the named lipid / RLU of SM-102, times that of SM-102
How it was run: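 293T cells at 10,000 per well, adhered overnight, then given LNPs carrying 0.3 μg Fluc-mRNA (cationic:neutral:structured:polymer-conjugated lipid 49:10:39.5:1.5 molar). After 24 h, luciferase signal read with luciferase kit reagents on an IVIS imaging system as transfection efficiency.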

293T cells [4] = experiment: Cell survival rate assay (CCK-8); type: cell-based; conditions: for Cell survival rate: LNP containing 1.5 μg Fluc-mRNA, 24 hours, CCK-8
How it was run: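 293T cells seeded at 10,000 per well and grown overnight, then exposed for 24 h to LNPs (cationic/neutral/structured/PEG lipids 49:10:39.5:1.5) carrying 1.5 μg Fluc-mRNA, or Lipofectamine 3000. Viability read by CCK-8, 1 h incubation, absorbance at 450 nm.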

Structure (SMILES): CCCCCCCCC(CCCCCC)C(=O)OCCCCCCN(CCCCO)CCCCCCOC(=O)C(CCCCCC)CCCCCCCC (stereo not shown) [ALC-0315, reference compound]
- Drug loading concentration [1]: 26.05 µg/mL
- Encapsulation rate [1]: 62.8%
- Total RNA concentration [1]: 37.12 µg/mL
- average radiation intensity (mRNA expression) (female BALB/C mice; 6 h): 842355
- average radiation intensity (mRNA expression) (female BALB/C mice; 24 h): 182350
- average radiation intensity (mRNA expression) (female BALB/C mice; 48 h): 38130
- average radiation intensity (mRNA expression) (female BALB/C mice; 7 d): 6588
- PDI [2]: 15.9%
- Particle size [2]: 218 nm
- Relative light unit (RLU) (293T cells [3]): 2147045 RLU
- Multiples of values that equivalent to YK-201 (293T cells [3]): 13.27
- Multiples of values that equivalent to YK-202 (293T cells [3]): 13.95
- Multiples of values that equivalent to YK-209 (293T cells [3]): 12.51
- Ratio relative to SM-102 (293T cells [3]): 1.29
- Cell survival rate (293T cells [4]): 49.96%

Structure (SMILES): CCCCCCCCCCCOC(=O)CCCCCN(CCCCCCCC(=O)OC(CCCCCCC)CCCCCCC)CCN(C)CCO [YK-206]
- drug loading concentration, times that of ALC-0315 [1]: 1.46 times
- drug loading concentration, times that of HHMA [1]: 1.24 times
- drug loading concentration, times that of SM-102 [1]: 1.50 times
- drug loading concentration, times that of YK-009 [1]: 1.42 times
- drug loading concentration, times that of compound 21 [1]: 1.69 times
- drug loading concentration, times that of compound 23 [1]: 1.84 times
- total RNA concentration, times that of ALC-0315 [1]: 1.12 times
- total RNA concentration, times that of HHMA [1]: 1.10 times
- total RNA concentration, times that of SM-102 [1]: 1.18 times
- total RNA concentration, times that of YK-009 [1]: 1.08 times
- total RNA concentration, times that of compound 21 [1]: 1.36 times
- total RNA concentration, times that of compound 23 [1]: 1.28 times
- Drug loading concentration [1]: 38.09 µg/mL
- Encapsulation rate [1]: 91.4%
- Total RNA concentration [1]: 41.69 µg/mL
- encapsulation rate higher than that of ALC-0315 ([1]; difference of rates): 28.60%
- encapsulation rate higher than that of HHMA ([1]; difference of rates): 30.90%
- encapsulation rate higher than that of SM-102 ([1]; difference of rates): 29.10%
- encapsulation rate higher than that of YK-009 ([1]; difference of rates): 28.40%
- encapsulation rate higher than that of compound 21 ([1]; difference of rates): 33.60%
- encapsulation rate higher than that of compound 23 ([1]; difference of rates): 36.20%
- average radiation intensity (mRNA expression) (female BALB/C mice; 6 h): 2068900
- average radiation intensity (mRNA expression) (female BALB/C mice; 24 h): 1553050
- average radiation intensity (mRNA expression) (female BALB/C mice; 48 h): 500150
- average radiation intensity (mRNA expression) (female BALB/C mice; 7 d): 23015
- mRNA expression level in mice can reach, times that of ALC-0315 (female BALB/C mice; time point not stated): 13 times
- mRNA expression level in mice can reach, times that of HHMA (female BALB/C mice; time point not stated): 16 times
- mRNA expression level in mice can reach, times that of SM-102 (female BALB/C mice; time point not stated): 16 times
- mRNA expression level in mice can reach, times that of compound 21 (female BALB/C mice; time point not stated): 16 times
- mRNA expression level in mice can reach, times that of compound 23 (female BALB/C mice; time point not stated): 16 times
- PDI [2]: 18.8%
- Particle size [2]: 216 nm
- RLU / cell transfection efficiency, times that of ALC-0315 (293T cells [3]; Fluc-mRNA LNP): 9 times
- RLU / cell transfection efficiency, times that of HHMA (293T cells [3]; Fluc-mRNA LNP): 10 times
- RLU / cell transfection efficiency, times that of Lipofectamine 3000 (293T cells [3]; Fluc-mRNA LNP): 17 times
- RLU / cell transfection efficiency, times that of YK-009 (293T cells [3]; Fluc-mRNA LNP): 4 times
- RLU / cell transfection efficiency, times that of compound 21 (293T cells [3]; Fluc-mRNA LNP): 14 times
- RLU / cell transfection efficiency, times that of compound 23 (293T cells [3]; Fluc-mRNA LNP): 15 times
- fluorescence absorption value / cell transfection efficiency, times that of YK-205 (293T cells [3]; Fluc-mRNA LNP): 20.29 times
- Relative light unit (RLU) (293T cells [3]): 21058746 RLU
- Multiples of values that equivalent to YK-201 (293T cells [3]): 1.35
- Multiples of values that equivalent to YK-202 (293T cells [3]): 1.42
- Multiples of values that equivalent to YK-209 (293T cells [3]): 1.28
- Cell survival rate (293T cells [4]): 74.57%
- cell survival rate higher than that of ALC-0315 (293T cells [4]; difference of rates): 24.61%
- cell survival rate higher than that of HHMA (293T cells [4]; difference of rates): 9.01%
- cell survival rate higher than that of Lipofectamine 3000 (293T cells [4]; difference of rates): 51.52%
- cell survival rate higher than that of SM-102 (293T cells [4]; difference of rates): 6.02%
- cell survival rate higher than that of compound 21 (293T cells [4]; difference of rates): 5.55%
- cell survival rate higher than that of compound 23 (293T cells [4]; difference of rates): 4.47%

Structure (SMILES): CCCCCCC(CCCCCC)CCOC(=O)CCCCCCCN(CCO)CCCCCCCC(=O)OCCC(CCCCCC)CCCCCC [Compound 23, bis(3-hexylnonyl)8,8′-((2-hydroxyethyl)azadialkyl)dioctanoate, reference compound]
- Drug loading concentration [1]: 20.7 µg/mL
- Encapsulation rate [1]: 55.2%
- Total RNA concentration [1]: 32.51 µg/mL
- average radiation intensity (mRNA expression) (female BALB/C mice; 6 h): 594050
- average radiation intensity (mRNA expression) (female BALB/C mice; 24 h): 110870
- average radiation intensity (mRNA expression) (female BALB/C mice; 48 h): 32074
- average radiation intensity (mRNA expression) (female BALB/C mice; 7 d): 5827
- PDI [2]: 8.6%
- Particle size [2]: 138 nm
- Relative light unit (RLU) (293T cells [3]): 1332014 RLU
- Multiples of values that equivalent to YK-201 (293T cells [3]): 21.38
- Multiples of values that equivalent to YK-202 (293T cells [3]): 22.49
- Ratio relative to SM-102 (293T cells [3]): 0.80
- Cell survival rate (293T cells [4]): 70.10%

Second part, led by results:

- Drug loading concentration [1]: 42.19 µg/mL
- Encapsulation rate [1]: 90.4%
- Total RNA concentration [1]: 46.66 µg/mL
- PDI [2]: 17.9%
- Particle size [2]: 210 nm
Structure (SMILES): CCCCCCCCCCOC(=O)CCCN(CCCCCC(=O)OCCC(CCCCCC)CCCCCC)CCOC(=O)SCCCN(C)C [YK-217, 3-hexylnonyl-11-(4-(decyloxy)-4-oxobutyl)-2-methyl-7-oxo-8-oxo-6-thio-2,11-diazaheptane-17-carboxylate]
- average radiation intensity (mRNA expression) (female BALB/C mice; 6 h): 24585
- average radiation intensity (mRNA expression) (female BALB/C mice; 24 h): 2650
- average radiation intensity (mRNA expression) (female BALB/C mice; 48 h): 1024
- average radiation intensity (mRNA expression) (female BALB/C mice; 7 d): 523
- Relative light unit (RLU) (293T cells [3]): 71850 RLU
- Multiples of values that equivalent to YK-201 (293T cells [3]): 396.42
- Multiples of values that equivalent to YK-202 (293T cells [3]): 416.94
- Multiples of values that equivalent to YK-209 (293T cells [3]): 293.09
- Ratio relative to SM-102 (293T cells [3]): 0.04
- Cell survival rate (293T cells [4]): 42.27%

- Drug loading concentration [1]: 37.51 µg/mL
- Encapsulation rate [1]: 98.3%
- Total RNA concentration [1]: 38.16 µg/mL
- PDI [2]: 25.8%
- Particle size [2]: 211 nm
Structure (SMILES): CCCCCCCCC(CCCCCCCC)COC(=O)CCCCCN(CCCCCC(=O)OCC(CCCCCCCC)CCCCCCCC)CCN(C)CCNC [YK-223]
- average radiation intensity (mRNA expression) (female BALB/C mice; 6 h): 10355
- average radiation intensity (mRNA expression) (female BALB/C mice; 24 h): 1786
- average radiation intensity (mRNA expression) (female BALB/C mice; 48 h): 678
- average radiation intensity (mRNA expression) (female BALB/C mice; 7 d): 440
- Relative light unit (RLU) (293T cells [3]): 75012 RLU
- Multiples of values that equivalent to YK-201 (293T cells [3]): 379.71
- Multiples of values that equivalent to YK-202 (293T cells [3]): 399.37
- Multiples of values that equivalent to YK-209 (293T cells [3]): 280.74
- Ratio relative to SM-102 (293T cells [3]): 0.05
- Cell survival rate (293T cells [4]): 36.64%
